From patent publication US20230151101A1, “METHODS AND COMPOSITIONS TO ENHANCE HUMORAL IMMUNITY TO REDUCE CYTOMEGALOVIRUS INFECTION AND REACTIVATION BY IL-6 INHIBITION” (Fred Hutchinson Cancer Center, priority 2021, published 2023)

Experiments:
Format in all cases: in vivo, human
HCMV specific T cells = assay: HCMV-specific CD8+ T cells and T cell memory phenotype in PBMC at day +60 after BMT (flow cytometry)
Protocol: (§1) FIGS. 7A through 7G. […] Patients included for the evaluation of human CMV (HCMV) reactivation (as in FIG. 6) were analyzed for HCMV specific T cells and other immune subsets. A total of 50 PBMC samples at day + 60 after bone marrow transplantation (BMT) were identified based on availability of HCMV tetramers and peptides. FIG. 7A. Frequency of HCMV tetramer positive CD8^+ T cells in patients with or without HCMV reactivation. FIG. 7B. Frequency of cytokine (IFNy^+TNF^+) producing CD8^+ T cells following HCMV peptide stimulation in patients with or without HCMV reactivation. FIG. 7C. Frequency of HCMV tetramer positive CD8^+ T cells in patients receiving tocilizumab (TCZ) (n = 21) or placebo control (Ctrl) (n = 29). FIG. 7D. Frequency of cytokine (IFNv^+TNF^+) producing CD8^+ T cells in patients receiving TCZ or placebo. FIG. 7E. Memory phenotype for CD4^+ T cells in patients receiving TCZ or placebo. FIG. 7F. Memory phenotype for CD8^+ T cells in patients receiving TCZ or placebo. FIG. 7G. Proportions of naive B cells, mature B cells and plasmablasts in a subset of the above cohort (n = 19 for control and 17 for TCZ groups respectively). *P < 0.05.
Next the effect of IL-6 inhibition was investigated on donor T and B cell responses after BMT. Firstly, HCMV-specific CD8^+ T cells defined by HCMV-tetramer staining or cytokine production (IFNγ and/or TNF) were analyzed following HCMV peptide stimulation in conjunction with markers of T cell memory (CD45RA and CCR7). The inventors identified 50 PBMC samples at day + 60 after BMT based on availability of HCMV tetramers (and/or peptides). […] Within the subset of patients with HCMV reactivation, HCMV tetramer^+ cells were present at a lower frequency in patients with higher HCMV viremia (FIG. 7A right).

HCMV-specific IgG = HCMV-specific IgG titers in plasma at day +30 after BMT (chemiluminescence, Diasorin Liaison XL)
From the text: FIGS. 8A through 8C. IL-6 inhibition with tocilizumab is associated with the maintenance of human CMV (HCMV)-specific IgG. FIGS. 8A to 8C. Quantification of HCMV-specific IgG titers in plasma at day + 30 after bone marrow transplantation (BMT). FIG. 8A. D^-R^+ and D^+R^+ patients are classified into 3 groups based on HCMV reactivation (reactivation before day + 35, reactivation between day + 35 and + 100, no reactivation by day + 100) and respective HCMV-specific IgG titers are shown. FIG. 8B. HCMV-specific IgG in D^-R^+ and D^+R^+ patients are shown for tocilizumab (TCZ) versus placebo control (Ctrl) groups (left). The analysis for the subset of unrelated transplants is shown right. FIG. 8C. Titers of HCMV-specific IgG in D^+R^- patients are shown for TCZ versus placebo control groups. Dotted lines indicate detection limit of the HCMV-IgG assay (5 -180 U/mL).
Total and HCMV-specific IgG. The concentration of total IgG was determined with Enzyme-linked immunosorbent assay (Invitrogen) as per the manufacturer’s protocol. Quantification of HCMV IgG was conducted by Sullivan Nicolaides Pathology Queensland (Bowen Hills, QLD, Australia) using a chemiluminescence method on the Diasorin Liaison® XL platform. This semiquantitative method allows for a detection range of 5 - 180 Unit/mL.
Given the lack of effects of IL-6 inhibition on T and B cells, HCMV-specific IgG was quantified after BMT. […]

HCMV [1] = assay: phase I/II clinical trial of tocilizumab added to standard GVHD prophylaxis: HCMV reactivation vs historical cohort; details: at risk BMT recipients; compared to non-randomized similarly transplanted historical cohort
From the text: FIGS. 9A through 9C. IL-6 inhibition with tocilizumab is associated with low rates of significant CMV reactivation relative to historical controls. Human CMV (HCMV) viremia over time after bone marrow transplantation (BMT) in patients from (FIG. 9A) a phase I/II clinical trial of the addition of tocilizumab to standard graft versus host disease (GVHD) prophylaxis (left) or (FIG. 9B) a contemporaneous historical control cohort (right). FIG. 9C. Depiction of CMV reactivation > 600 versus < 600 copies/µL of plasma in the two patient cohorts.
(§2) Patients. Patients were enrolled in reported phase I/II (ACTRN12612000726853) or phase III (ACTRN12614000266662) clinical trials. The studies were approved by the Royal Brisbane and Womens Hospital institutional human ethics committee and all patients provided signed informed consent.
HCMV monitoring. CMV viral load was monitored using the COBAS® Amplicor CMV Monitor test (Roche Diagnostics, Basel, Switzerland) as previously described (Tey SK, Kennedy GA, Cromer D, Davenport MP, Walker S, Jones LI, et al. Clinical assessment of anti-viral CD8+ T cell immune monitoring using QuantiFERON-CMV® assay to identify high risk allogeneic hematopoietic stem cell transplant patients with CMV infection complications. PloS one. 2013, 8(10), e74744). […]

CD19+ B cells = assay: B cell subsets and B cell counts in peripheral blood after clinical BMT
Protocol: as §1
FIGS. 12A through 12B. The effects of IL-6 inhibition with tocilizumab (TCZ) on B cell recovery following clinical BMT. FIG. 12A. B cell counts in peripheral blood in at-risk patients at day + 30 and + 60 after BMT. FIG. 12B. B cell counts in peripheral blood at day + 60 after bone marrow transplantation (BMT), classified into 4 groups based on the TCZ administration and the presence of acute graft versus host disease (aGVHD).
Furthermore, there was no difference in the memory phenotypes of CD4^+ and CD8^+ T cells between placebo and TCZ treated patients (FIGS. 7E - 7F). The inventors also analyzed CD19^+ B cells in available samples (n = 19 for Ctrl and n = 17 for TCZ).

HCMV [2] = assay: phase III randomized placebo-controlled trial: HCMV viremia and cumulative incidence of HCMV reactivation after allogenic BMT
From the text: FIGS. 6A through 6D. IL-6 inhibition with tocilizumab reduces human CMV (HCMV) reactivation in clinical allogenic bone marrow transplantation (BMT) recipients. Participants of a phase 3 clinical trial who were enrolled at Royal Brisbane and Women’s Hospital and were at-risk of HCMV reactivation were included for analysis (n = 85). These patients were either seropositive for HCMV (R^+) or received grafts from seropositive donors (D^+). FIGS. 6A to 6C. Cumulative incidence of any detectable HCMV reactivation after BMT in at-risk patients. Solid lines represent the tocilizumab (TCZ) group and broken lines represent the placebo control group. FIG. 6A. HCMV reactivation in the total cohort (left) or the subset of patients with grade 0 - I acute graft versus host disease (aGVHD) (right). FIG. 6B. HCMV reactivation in all recipients of volunteer unrelated donor (VUD) grafts (left) or the subset of patients with grade 0 - I aGVHD (right). FIG. 6C. HCMV reactivation in all recipients of matched sibling donor (MSD) grafts (left) or those with grade 0 - I aGVHD (right). FIG. 6D. Distribution of HCMV serostatus (D^+R^-, D^+R^+ and D^-R^+) in recipients of MSD or VUD grafts.
(§3) FIGS. 11A through 11D. IL-6 inhibition with tocilizumab (TCZ) attenuates human CMV (HCMV) viremia after clinical BMT. FIG. 11A. Kinetics of HCMV viremia over time for placebo control versus TCZ groups. FIG. 11B (left). The number of PCR positive events of HCMV viremia plotted in (A) and depicted in the two patient cohorts. FIG. 11B (right). Distribution of HCMV reactivation in the patient cohorts receiving volunteer unrelated donor (VUD) grafts. FIG. 11C. Plasma concentration of MCP-1 at day + 60 after bone marrow transplantation (BMT) in patients was quantified and shown in relation to HCMV reactivation (≥ 600 copies/µL) and TCZ treatment. FIG. 11D. Pair-wise comparison of MCP-1 from day + 30 to + 60 in patients without (left) or with (right) significant CMV reactivation (≥ 600 copies/µL) in the placebo group. *P < 0.05; ****P < 0.0001.
as §2
HCMV monitoring. CMV viral load was monitored using the COBAS® Amplicor CMV Monitor test (Roche Diagnostics, Basel, Switzerland) as previously described (Tey SK, Kennedy GA, Cromer D, Davenport MP, Walker S, Jones LI, et al. Clinical assessment of anti-viral CD8+ T cell immune monitoring using QuantiFERON-CMV® assay to identify high risk allogeneic hematopoietic stem cell transplant patients with CMV infection complications. PloS one. 2013, 8(10), e74744). Cumulative incidence of any detectable HCMV viremia is plotted up to day + 100 after BMT and HCMV is censored at day + 100 of BMT or the time of death if this occurred prior to day 100.
Statistics. Results are presented as median ± interquartile range and the Mann-Whitney U test was used for comparisons. Wilcoxon test is conducted for pair-wise comparisons. Ordinary least-squares method was used in the linear or semi-log regression analysis. A two-sided P value of 0.05 was considered statistically significant. […]

MCP-1 = assay: plasma MCP-1 in phase III BMT patients; details: day 60 after BMT
From the text: as §3
Flow cytometry. Antibody stained single-cell suspensions were analyzed on an LSR Fortessa™ cytometer in Australia or a FACSymphony™ A3 in Seattle USA (Becton Dickinson) and data are processed using FlowJo version 10 (Tree Star). Cytokines levels in the plasma were determined with the BD Cytometric Bead Array system (BD Biosciences).
Furthermore, high level HCMV reactivation (≥ 600 copies/ul) was associated with a greater increase in MCP-1 between day + 30 and + 60 than seen in patients with low level reactivation (FIG. 11D). […]

tocilizumab was tested, and the “frequency of cytokine-producing CD8+ T cells” value (HCMV specific T cells; day +60 PBMC, HCMV peptide stimulation, TCZ vs placebo) was “did not have any significant effect”, the “frequency of HCMV-tetramer+CD8+ T cells” value (HCMV specific T cells; day +60 PBMC, TCZ (n = 21) vs placebo (n = 29)) was “did not have any significant effect” and the “memory phenotypes of CD4+ and CD8+ T cells” value (HCMV specific T cells; placebo vs TCZ treated patients) was “no difference”. For the same substance, the “effect on HCMV-IgG titers by graft type” value (HCMV-specific IgG; day +30 plasma, VUD subset) was “predominantly observed in recipients of VUD grafts”, the “HCMV-IgG in day +30 plasma” value (HCMV-specific IgG; seropositive recipients (D-R+ and D+R+), TCZ vs placebo) was “higher” and the “rates of significant HCMV reactivation requiring preemptive therapy (> 600 copies/µL)” value (HCMV [1]) was “low rates”. The “absolute numbers of B cells in blood” value (CD19+ B cells; day +30 or +60, presence or absence of TCZ) was “not different”, the “B cell suppression in patients with grade II-IV acute GVHD” value (CD19+ B cells; day +60) was “did appear to mitigate” and the “frequencies of IgD+CD27- naïve B cells, IgD-CD27+ mature B cells or CD38hi plasmablasts” value (CD19+ B cells; n = 19 Ctrl, n = 17 TCZ) was “did not impact”. For the same substance, the “benefit from treatment by serostatus” value (HCMV [2]; HCMV seropositive patients receiving seronegative grafts (D-R+)) was “maximum benefit”, the HCMV viremia (HCMV [2]; TCZ vs placebo, at-risk patients (n = 85)) was “a trend towards lower HCMV viremia” and the “HCMV reactivation, TCZ versus placebo” value (HCMV [2]; recipients of matched sibling donor grafts) was “no difference”. For the same substance, the “protection on HCMV reactivation” value (HCMV [2]; recipients of volunteer unrelated donor (VUD) grafts, independent of acute GVHD) was “most profound”, the “cumulative incidence of HCMV reactivation” value (HCMV [2]; total cohort, TCZ vs placebo, independent of acute GVHD) was “a trend towards lower cumulative incidence” and the “increase of plasma MCP-1 with HCMV reactivation (≥ 600 copies/ul)” value (MCP-1) was “not observed”.
